According to publication PMC10726465, “Synthesis and Evaluation of Small Molecule Inhibitors of the Androgen Receptor N-Terminal Domain” (ACS Medicinal Chemistry Letters, 2023):

Molecular target: T1, androgen receptor (AR) (Homo sapiens, UniProt P10275)
T1 sequence (P10275 1-920): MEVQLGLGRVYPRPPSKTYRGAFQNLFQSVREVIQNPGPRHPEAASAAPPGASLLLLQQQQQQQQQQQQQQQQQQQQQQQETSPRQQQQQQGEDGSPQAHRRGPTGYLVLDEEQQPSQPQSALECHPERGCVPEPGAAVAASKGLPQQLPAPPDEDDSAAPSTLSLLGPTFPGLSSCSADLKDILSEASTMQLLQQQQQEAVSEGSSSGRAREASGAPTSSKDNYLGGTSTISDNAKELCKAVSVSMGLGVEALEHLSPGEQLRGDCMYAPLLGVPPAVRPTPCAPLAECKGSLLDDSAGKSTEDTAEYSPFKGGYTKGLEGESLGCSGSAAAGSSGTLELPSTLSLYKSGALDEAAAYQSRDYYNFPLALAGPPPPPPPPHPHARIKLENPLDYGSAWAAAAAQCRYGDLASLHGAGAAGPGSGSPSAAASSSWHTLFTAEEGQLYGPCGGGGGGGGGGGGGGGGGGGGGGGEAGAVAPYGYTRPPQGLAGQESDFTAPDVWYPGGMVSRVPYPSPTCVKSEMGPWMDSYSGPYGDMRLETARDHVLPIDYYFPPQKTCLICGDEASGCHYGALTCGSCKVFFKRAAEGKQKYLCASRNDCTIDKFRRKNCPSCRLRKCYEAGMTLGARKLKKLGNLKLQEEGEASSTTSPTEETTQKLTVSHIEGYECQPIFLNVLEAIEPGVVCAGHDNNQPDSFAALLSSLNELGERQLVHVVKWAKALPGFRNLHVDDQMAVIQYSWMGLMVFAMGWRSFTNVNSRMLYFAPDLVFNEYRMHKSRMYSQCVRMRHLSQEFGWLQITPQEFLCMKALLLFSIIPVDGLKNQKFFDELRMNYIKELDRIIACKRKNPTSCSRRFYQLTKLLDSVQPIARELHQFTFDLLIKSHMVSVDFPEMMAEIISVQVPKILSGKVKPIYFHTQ
Settings: for Ligand Efficiency (LE): from VCaP GRE2-luciferase IC50; for Lipophilic Ligand Efficiency (LLE): from VCaP GRE2-luciferase IC50 and cLogP; for IC50: read-out: VCaP GRE2-luciferase IC50, 24 h, 0–30 µM compound; for IC50 / activity in VCaP GRE2-luciferase assay (in words): VCaP cells, 1 nM DHT
Procedure: VCaP cells, obtained from the American Type Culture Collection, were maintained in Dulbecco’s Modified Eagles Medium (DMEM) supplemented with 10% foetal bovine serum. Cells were maintained at 37°C without antibiotics in a humidified atmosphere
Transient transfection and Luciferase Activity Assay:
Cells at 70–80% confluence in 24 well plates, were transferred to DMEM
300ng/well of the firefly reporter plasmid, GRE2-TATA-luc using JetPEI (PolyPLUS Transfection) according to the manufacturers’ protocol.
replaced with fresh DMEM +5% CSS containing either DMSO (vehicle control) or 0– 30 µM small molecules together with 1nM DHT. Twenty four hours later, medium was aspirated, cells were washed with PBS and extracted with Passive Lysis Buffer
Cell debris was removed by centrifugation at 13,000 xg for 5min and supernatants collected. Luciferase activity was measured in triplicate, using an in-house luciferase assay buffer (13 mM MgSO4 7H2O, 30 mM
amount of total cellular protein.
Inhibition of hormone-dependent expression of prostate specific antigen (PSA):
VCaP prostate cells were treated with 1 nM DHT in the absence or presence of inhibitor. After 24 hours cells were harvested and PSA detected by Western blotting and normalised against β-actin.
Luciferase activity in cells treated with small molecules was determined as a percentage of the untreated control, which was set at 100%. Plots of activity against small molecule concentration (log) were analysed in GraphPad PRISM 5 and IC50 values for each small molecule determined.

CSc1ccc(C(N)=O)cc1-c1ccc2cn[nH]c2c1 [Compound 14]
Ligand Efficiency (LE): 0.63 | Lipophilic Ligand Efficiency (LLE): 7.1 | IC50: 2.2 µM

CSc1ccc(C(N)=O)cc1-c1c(C)noc1C [Compound 10]
Ligand Efficiency (LE): 0.63 | Lipophilic Ligand Efficiency (LLE): 6.2 | IC50: 4.7 µM

CSc1ccc(C(N)=O)cc1-c1ccc2c(ccn2C)c1 [Compound 17]
Ligand Efficiency (LE): 0.66 | Lipophilic Ligand Efficiency (LLE): 7.0 | IC50: 0.09 µM

Cn1ncc2cc(-c3cccc(C(N)=O)c3)ccc21 [Compound 43]
activity in VCaP GRE2-luciferase assay (in words): no bioactivity | Ligand Efficiency (LE): 0.54 | Lipophilic Ligand Efficiency (LLE): 5.7 | IC50: > 30 µM

Cc1ccc(C(N)=O)cc1-c1ccc2c(cnn2C)c1 [Compound 41]
activity in VCaP GRE2-luciferase assay (in words): loss of activity | Ligand Efficiency (LE): 0.52 | Lipophilic Ligand Efficiency (LLE): 5.4 | IC50: > 30 µM

CSc1ccc(C(=O)N2CCCCC2)cc1-c1cncnc1 [Compound 59]
Ligand Efficiency (LE): 0.62 | Lipophilic Ligand Efficiency (LLE): 6.8 | IC50: 0.13 µM

Cn1ncc2cc(-c3cc(C(N)=O)ccc3NCCN3CCCCC3)ccc21 [Compound 55]
Ligand Efficiency (LE): 0.37 | Lipophilic Ligand Efficiency (LLE): 5.3 | IC50: > 30 µM

CSc1ccc(C(N)=O)cc1-c1ccncc1 [Compound 23]
activity in VCaP GRE2-luciferase assay (in words): loss of activity | Ligand Efficiency (LE): 0.61 | Lipophilic Ligand Efficiency (LLE): 5.6 | IC50: > 30 µM

Cn1ncc2cc(-c3cc(C(N)=O)ccc3OCC3CC3)ccc21 [Compound 50]
activity in VCaP GRE2-luciferase assay (in words): inactive | Ligand Efficiency (LE): 0.43 | Lipophilic Ligand Efficiency (LLE): 5.1 | IC50: > 30 µM

Cn1ncc2cc(-c3cc(C(N)=O)cnc3SCc3ccccc3)ccc21 [Compound 35]
Ligand Efficiency (LE): 0.38 | Lipophilic Ligand Efficiency (LLE): 4.7 | IC50: > 30 µM

CSc1cc(C(N)=O)cc(-c2ccc3c(cnn3C)c2)c1 [Compound 39]
activity in VCaP GRE2-luciferase assay (in words): inactive | Ligand Efficiency (LE): 0.49 | Lipophilic Ligand Efficiency (LLE): 5.3 | IC50: > 30 µM

Cn1ncc2cc(-c3cc(C(N)=O)ccc3NCCCN3CCOCC3)ccc21 [Compound 56]
Ligand Efficiency (LE): 0.43 | Lipophilic Ligand Efficiency (LLE): 7.5 | IC50: 0.8 µM

CSc1ccc(C(N)=O)cc1-c1ccno1 [Compound 7]
Ligand Efficiency (LE): 0.70 | Lipophilic Ligand Efficiency (LLE): 6.7 | IC50: 7.4 µM

CSc1ccc(C(N)=O)cc1-c1ccc2occc2c1 [Compound 25]
Ligand Efficiency (LE): 0.63 | Lipophilic Ligand Efficiency (LLE): 5.9 | IC50: 0.6 µM

CSc1c(F)cc(C(N)=O)cc1-c1ccc2c(cnn2C)c1 [Compound 38]
Ligand Efficiency (LE): 0.60 | Lipophilic Ligand Efficiency (LLE): 7.3 | IC50: 0.24 µM

CSc1ncc(C(N)=O)cc1-c1ccc2c(cnn2C)c1 [Compound 34]
activity in VCaP GRE2-luciferase assay (in words): loss of activity | Ligand Efficiency (LE): 0.49 | Lipophilic Ligand Efficiency (LLE): 6.2 | IC50: > 30 µM

COc1ccc(C(N)=O)cc1-c1ccc2c(cnn2C)c1 [Compound 46]
Ligand Efficiency (LE): 0.49 | Lipophilic Ligand Efficiency (LLE): 5.8 | IC50: > 30 µM

Cn1ncc2cc(-c3cc(C(N)=O)ccc3OC(F)(F)F)ccc21 [Compound 48]
Ligand Efficiency (LE): 0.43 | Lipophilic Ligand Efficiency (LLE): 4.6 | IC50: > 30 µM

CSc1ccc(C(N)=O)cc1-c1cccc(O)c1F [Compound 31]
activity in VCaP GRE2-luciferase assay (in words): inactive | Ligand Efficiency (LE): 0.54 | Lipophilic Ligand Efficiency (LLE): 4.9 | IC50: > 30 µM

CSc1ccc(C(N)=O)cc1-c1cccnc1 [Compound 22]
activity in VCaP GRE2-luciferase assay (in words): loss of activity | Ligand Efficiency (LE): 0.61 | Lipophilic Ligand Efficiency (LLE): 5.6 | IC50: > 30 µM

CCc1ccc(C(N)=O)cc1-c1ccc2c(cnn2C)c1 [Compound 42]
activity in VCaP GRE2-luciferase assay (in words): loss of activity | Ligand Efficiency (LE): 0.49 | Lipophilic Ligand Efficiency (LLE): 5.0 | IC50: > 30 µM

CSc1ccc(C(N)=O)cc1-c1ccc[nH]1 [Compound 11]
activity in VCaP GRE2-luciferase assay (in words): no activity | Lipophilic Ligand Efficiency (LLE): 5.8 | IC50: > 30 µM

CN(C)CCNc1ccc(C(N)=O)cc1-c1ccc2c(cnn2C)c1 [Compound 57]
Ligand Efficiency (LE): 0.41 | Lipophilic Ligand Efficiency (LLE): 6.4 | IC50: > 30 µM

COc1cc(-c2cc(C(N)=O)ccc2SC)ccc1N [Compound 30]
activity in VCaP GRE2-luciferase assay (in words): loss of activity | Ligand Efficiency (LE): 0.52 | Lipophilic Ligand Efficiency (LLE): 5.4 | IC50: > 30 µM

CSc1ccc(C(N)=O)cc1-c1ccc2ncccc2c1 [Compound 20]
Ligand Efficiency (LE): 0.59 | Lipophilic Ligand Efficiency (LLE): 5.9 | IC50: 0.8 µM

Cn1ncc2cc(-c3cc(C(N)=O)ccc3F)ccc21 [Compound 44]
activity in VCaP GRE2-luciferase assay (in words): inactive | Ligand Efficiency (LE): 0.52 | Lipophilic Ligand Efficiency (LLE): 5.6 | IC50: > 30 µM

COc1ncc(C(N)=O)cc1-c1ccc2c(cnn2C)c1 [Compound 37]
Ligand Efficiency (LE): 0.49 | Lipophilic Ligand Efficiency (LLE): 6.5 | IC50: > 30 µM

Cn1ncc2cc(-c3cc(C(N)=O)ccc3N3CCOCC3)ccc21 [Compound 53]
Ligand Efficiency (LE): 0.41 | Lipophilic Ligand Efficiency (LLE): 6.1 | IC50: > 30 µM

Cn1ncc2cc(-c3cc(C(N)=O)ccc3O)ccc21 [Compound 49]
activity in VCaP GRE2-luciferase assay (in words): lack of activity | Ligand Efficiency (LE): 0.52 | Lipophilic Ligand Efficiency (LLE): 6.1 | IC50: > 30 µM

Cn1ncc2cc(-c3cc(C(N)=O)ccc3C(F)(F)F)ccc21 [Compound 45]
Ligand Efficiency (LE): 0.48 | Lipophilic Ligand Efficiency (LLE): 5.4 | IC50: 8.6 µM
